Experimental data reported in patent publication US20250332212A1, “METHOD FOR TREATING OR PREVENTING ALOPECIA” (Suzhou Mingren Pharmaceutical Biotechnology Co., Ltd., priority 2024, published 2025).
Square brackets hold non-standard residues; d marks the D form. Ends that are not written are not given here. pS = N[C@@H](COP(=O)(O)O)C(=O)O

Tested on: SP1, Wnt10a, Wnt10b and β-catenin
Test: Immunoblotting of SP1 and downstream molecules in skin, Animal model III
Format: in vivo, mouse
Settings: 1% JP1
Procedure: 4.1) Protein extraction: 70 mg of skin tissue was placed in a 1.5 mL centrifuge tube, and 500 μL of tissue lysate RIPA containing protease inhibitor and phosphatase inhibitor was added. The tissue was placed on an ice box, pulverized by a tissue grinder, and then ultrasonically crushed to obtain a tissue suspension, which was then placed in a rotary windmill at 4° C. to be lysed for 2 h. The centrifuge was set at 12,000×g, 4° C., centrifuged for 15 min, and the supernatant was collected as the total protein.
5.1) Heating of protein samples: the total protein content of each tissue was 50 μg; calculate the volume of a corresponding protein sample, make up the volume with saline to 16 μL, then add 4 μL of 5×SDS sampling buffer, heat at 100° C. for 5 min, and then cool at room temperature and store at −20° C.
5.7) Primary antibody incubation: the cut protein bands were placed into the corresponding primary antibody and incubated at 4° C. on a shaker overnight, washed with TBST 3 times for 10 min/time.

## FPGSDRF-RGD (FPG[pS]DRFRGD) [JP1, amino acid S is phosphorylated; JWA peptide]
  expression levels of key molecules (SP1, Wnt10a, Wnt10b, β-catenin), day 4: did not change significantly
  protein expression levels of four molecules (SP1, Wnt10a, Wnt10b, β-catenin), day 8: increased significantly
